Where a name gives a salt, the structure may show the parent alone.
System: SOX2
Assay: Screen of a library of FDA-approved drugs for SOX2 antibody staining in A375 cells treated with PLX4720 and AZD6244
Conditions: for cor. loess / raw / norm: A375 cells, 5 uM test drug with 1 uM PLX4720 and 0.5 uM AZD6244, 24 h; for cor. loess: normalized and geometry-corrected (loess) signal; for raw: raw signal (ratio of FL2 SOX2 antibody and FL3 nuclear staining), screen run in duplicate; for norm: signal after plate normalization; for z: Z-test against negative controls (DMSO), single dose 5 uM

Question: How did the cor. loess turn out when `CCOC(=O)O[C@]1(C(=O)COC(=O)CC)CC[C@H]2[C@@H]3CCC4=CC(=O)C=C[C@]4(C)[C@H]3[C@@H](O)C[C@@]21C` [PREDNICARBATE] was run?
Answer: 0.3992

Question: What about the raw of the same molecule?
Answer: 0.9782

Question: What about the norm of the same molecule?
Answer: 0.4403

Question: What about the z of the same molecule?
Answer: 4.425

Question: With `CC(C)(C)CC(C)(C)c1ccc(OCCOCC[N+](C)(C)Cc2ccccc2)cc1` [BENZETHONIUM CHLORIDE] as the molecule, how does the cor. loess read?
Answer: 0.9288

Question: What about the raw of the same molecule?
Answer: 0.9635

Question: What about the norm of the same molecule?
Answer: 0.9712

Question: And the z?
Answer: 7.654

Question: `C1CCC(C(CC2CCCCN2)C2CCCCC2)CC1` (stereo not shown) [PERHEXILINE MALEATE] was tested. Which cor. loess did it give?
Answer: 0.3464

Question: And the raw?
Answer: 0.9786

Question: And the norm?
Answer: 0.4809

Question: What about the z of the same molecule?
Answer: 4.713

Question: Which results are given for `CC1(C)O[C@@H]2C[C@H]3[C@@H]4C[C@H](F)C5=CC(=O)C=C[C@]5(C)[C@H]4[C@@H](O)C[C@]3(C)[C@]2(C(=O)CO)O1` [FLUNISOLIDE]?
Answer: cor. loess: 0.6279; raw: 0.9737; norm: 0.6807; z: 5.388

Question: `C[C@H]1O[C@@H](O[C@H]2[C@@H](O)C[C@H](O[C@H]3[C@@H](O)C[C@H](O[C@H]4CC[C@@]5(C)[C@H](CC[C@@H]6[C@@H]5CC[C@]5(C)[C@@H](C7=CC(=O)OC7)CC[C@]65O)C4)O[C@@H]3C)O[C@@H]2C)C[C@H](O)[C@@H]1O` [DIGITOXIN] was tested. Which cor. loess did it give?
Answer: 1.488

Question: And the raw?
Answer: 0.9468

Question: And the norm?
Answer: 1.549

Question: And the z?
Answer: 12.26

Question: `CC(=O)OCC(=O)[C@@]1(O)[C@H](OC(C)=O)C[C@H]2[C@@H]3CCC4=CC(=O)C=C[C@]4(C)[C@@]3(F)[C@@H](O)C[C@@]21C` [TRIAMCINOLONE DIACETATE] was tested. Which cor. loess did it give?
Answer: 0.3964

Question: And the raw?
Answer: 0.9794

Question: What about the norm of the same molecule?
Answer: 0.4506

Question: What about the z of the same molecule?
Answer: 4.238

Question: For `Cc1cc(C#N)cc(C)c1Oc1nc(Nc2ccc(C#N)cc2)nc(N)c1Br` [Etravirine (TMC125), Etravirine], which cor. loess is on record?
Answer: 0.646

Question: What about the raw of the same molecule?
Answer: 0.9731

Question: And the norm?
Answer: 0.6589

Question: What about the z of the same molecule?
Answer: 6.907

Question: Which results are given for `Cc1ccc(C(=O)Nc2ccc(CN3CCN(C)CC3)c(C(F)(F)F)c2)cc1C#Cc1cnc2cccnn12` [Ponatinib (AP24534), Ponatinib]?
Answer: cor. loess: 0.6841; raw: 0.9701; norm: 0.7518; z: 5.338

Question: What does the source list for `CC(=O)OCC(=O)[C@@]1(O)CC[C@H]2[C@@H]3CCC4=CC(=O)C=C[C@]4(C)[C@@]3(Cl)[C@@H](Cl)C[C@@]21C` [DICHLORISONE ACETATE]?
Answer: cor. loess: 0.4911; raw: 0.9771; norm: 0.4765; z: 5.445

Question: What does the source list for `Cc1oncc1C(=O)Nc1ccc(C(F)(F)F)cc1` [LEFLUNOMIDE]?
Answer: cor. loess: 0.3194; raw: 0.9816; norm: 0.3831; z: 4.346

Question: Which cor. loess does the source give for `O=c1[nH]c(=O)n([C@H]2C[C@H](O)[C@@H](CO)O2)cc1I` [IDOXURIDINE] here?
Answer: 0.715

Question: And the raw?
Answer: 0.9726

Question: What about the norm of the same molecule?
Answer: 0.7167

Question: What about the z of the same molecule?
Answer: 6.136

Question: Which cor. loess does the source give for `CCNC1(C(N)=O)CCN(c2ncnc3c2nc(-c2ccccc2Cl)n3-c2ccc(Cl)cc2)CC1` [Otenabant (CP-945598) HCl] here?
Answer: 1.069

Question: What about the raw of the same molecule?
Answer: 0.9665

Question: What about the norm of the same molecule?
Answer: 0.8357

Question: And the z?
Answer: 4.116

Question: What does the source list for `CC1(C)O[C@@H]2C[C@H]3[C@@H]4C[C@H](F)C5=CC(=O)C=C[C@]5(C)[C@@]4(F)[C@@H](O)C[C@]3(C)[C@]2(C(=O)CO)O1` [FLUOCINOLONE ACETONIDE]?
Answer: cor. loess: 0.4202; raw: 0.9791; norm: 0.434; z: 3.463

Question: What does the source list for MONENSIN SODIUM?
Answer: cor. loess: 0.5359; raw: 0.9761; norm: 0.5968; z: 4.599

Question: What does the source list for `COC(=O)c1ccc2c(c1)NC(=O)/C2=C(\Nc1ccc(N(C)C(=O)CN2CCN(C)CC2)cc1)c1ccccc1` [Nintedanib (BIBF 1120), Nintedanib]?
Answer: cor. loess: 0.5485; raw: 0.9744; norm: 0.6171; z: 4.28

Question: What does the source list for `Cc1cc2nc3ccc(N(C)C)cc3[s+]c2cc1N` [TOLONIUM CHLORIDE]?
Answer: cor. loess: 0.7082; raw: 0.971; norm: 0.6829; z: 7.851
